Source: patent US20200239530A1, “COMPOUNDS AND METHODS OF MODULATING PROTEIN DEGRADATION” (Vividion Therapeutics, Inc., priority 2017, published 2020)

Target: T1, TRIM33 E3 ubiquitin-protein ligase TRIM33 (Homo sapiens, UniProt Q9UPN9)
T1 construct: Cells were resuspended in cold PBS on ice and sonicated with a probe sonicator to achieve lysis; endogenous in cells
T1 sequence (Q9UPN9 1-1127): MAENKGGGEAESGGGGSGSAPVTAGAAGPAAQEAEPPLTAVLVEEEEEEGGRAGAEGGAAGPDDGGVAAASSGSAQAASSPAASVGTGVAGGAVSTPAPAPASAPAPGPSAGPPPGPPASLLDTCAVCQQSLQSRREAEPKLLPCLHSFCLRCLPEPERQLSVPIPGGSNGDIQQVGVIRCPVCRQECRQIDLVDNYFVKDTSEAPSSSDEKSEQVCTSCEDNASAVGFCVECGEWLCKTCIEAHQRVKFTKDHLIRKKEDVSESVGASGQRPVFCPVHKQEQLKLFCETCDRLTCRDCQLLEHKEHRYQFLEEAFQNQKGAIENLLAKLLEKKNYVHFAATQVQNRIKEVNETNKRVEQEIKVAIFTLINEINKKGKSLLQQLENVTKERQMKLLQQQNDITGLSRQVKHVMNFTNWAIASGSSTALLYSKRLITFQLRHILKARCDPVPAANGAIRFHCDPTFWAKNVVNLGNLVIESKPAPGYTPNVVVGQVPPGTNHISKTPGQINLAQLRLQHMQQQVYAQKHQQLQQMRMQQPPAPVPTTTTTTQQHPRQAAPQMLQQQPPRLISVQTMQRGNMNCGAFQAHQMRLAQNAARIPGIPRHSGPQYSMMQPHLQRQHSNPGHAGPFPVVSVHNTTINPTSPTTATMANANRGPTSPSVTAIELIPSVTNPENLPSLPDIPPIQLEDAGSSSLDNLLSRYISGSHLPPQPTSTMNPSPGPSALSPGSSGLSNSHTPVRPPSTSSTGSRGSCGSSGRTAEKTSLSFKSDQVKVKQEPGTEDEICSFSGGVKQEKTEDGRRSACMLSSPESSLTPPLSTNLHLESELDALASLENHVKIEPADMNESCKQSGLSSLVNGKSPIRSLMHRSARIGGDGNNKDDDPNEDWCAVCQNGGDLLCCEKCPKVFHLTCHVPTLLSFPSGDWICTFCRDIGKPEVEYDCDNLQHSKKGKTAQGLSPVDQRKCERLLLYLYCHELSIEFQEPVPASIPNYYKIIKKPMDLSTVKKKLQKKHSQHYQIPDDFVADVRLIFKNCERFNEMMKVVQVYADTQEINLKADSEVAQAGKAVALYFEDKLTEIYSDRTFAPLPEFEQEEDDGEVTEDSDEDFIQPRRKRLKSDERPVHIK
Assay: Cysteine liganding, probe competition
Assay type: binding
Procedure, shortened: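 Lysates from probe-sonicated cells in PBS (5 mg/ml proteome) were exposed to compound for 1 hr at 25° C, then labelled with desthiobiotin iodoacetamide probe (10 mM stock) for 1 hr at 25° C. Probe-tagged peptides were streptavidin-enriched after trypsin digestion.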

With COc1ccc2c(c1)CCCN2C(=O)CCl [KB02] the Liganded (TRIM33 Res# 582, uniprot Q9UPN9) was “YES”.
O=C(CCl)Nc1cc(C(F)(F)F)cc(C(F)(F)F)c1 [KBO3] was tested, and the “KB03_500 uM_percent_inhibition” value (500 uM, UniProt Q9UPN9) was 86% and the Liganded (TRIM33 Res# 153, uniprot Q9UPN9) was “YES”.
